Source: patent US11179450B2, “Long chain antigen containing interepitope sequence that promotes antigen presentation to T cells” (MIE UNIVERSITY, priority 2013, dated 2021)

B1: NMW(Y6) mRNA: mRNA (RNA vaccine) from template cDNA Sequence No. 31, encoding long chain peptide antigen NMW with Y6 interepitope sequence (nucleic acid)
DNA: GGATCCATGAGCCTCCTGATGTGGATTACCCAATGCTATTACTACTATTACTACAACTATAAGAGATGTTTCCCCGTGATCTATTACTACTACTACTATTGCTATACATGGAATCAGATGAACCTGTGAGAATTC
modifications: mRNA transcribed from template cDNA; DNA sequence of a long chain peptide antigen, containing three types of human CD8+ T cell recognition epitope sequences (NY p157, MA4 p143, and WT1 p235)

Columns and labels:
[1] = test system: NY p81 specific CD8+ T cells; test: Specific CD8+ T cell induction in mice, intracellular cytokine staining (NY p81 epitope); type: in vivo, BALB/c mice; settings: FIG. 5; ESO1 LP vaccines complexed with CHP, CpG oligo DNA
Text: (§1) A long chain peptide antigen ESO1 LP (native type) (Sequence No. 16) and a long chain peptide antigen ESO1 LP (Y6) (Sequence No. 17), both containing a mouse CD8+ T cell epitope sequence (NY p81 or NY p82) and a mouse CD4+ T cell epitope sequence (NY p91) that are derived from human NY-ESO-1 antigen, were synthesized. As the interepitope sequence between epitopes, the native amino acid sequence of NY-ESO-1 was retained in the ESO1 LP (native type) and the sequence of six consecutive tyrosines (Y6) was used in the ESO1 LP (Y6). Vaccines containing the respective long chain peptide antigens were administered to mice in the same manner as in FIG. 1 and the frequencies of CD8+ T cells and CD4+ T cells specific to the respective epitope sequences were measured by the intracellular cytokine staining method.
(§2) Long chain peptide antigens MEN, all containing three types of mouse CD8+ T cell epitope sequences (MA p265 (Sequence No. 27), NY p81 (Sequence No. 29), and mERK2 9m (Sequence No. 28)), were synthesized. The interepitope sequences between the respective epitopes were one to six consecutive tyrosines (Sequence Nos. 1 and 9-12). Vaccines containing the respective long chain peptide antigens were administered to mice in the same manner as in FIG. 1 and the frequencies of CD8+ T cells specific to the respective epitope sequences were measured by the intracellular cytokine staining method.
as §2, with “five” for “one”, “ten” for “six”, “13-15).” for “9-12).”, “method. […]” for “method.”

[2] = test system: NY p91 specific CD4+ T cells; test: Specific CD4+ T cell induction in mice, intracellular cytokine staining (NY p91 epitope); type: in vivo, BALB/c mice; settings: FIG. 5; ESO1 LP vaccines complexed with CHP, CpG oligo DNA
Text: as §1
Each CHP/long chain peptide complex as the vaccine and the CpG oligo DNA as the adjuvant were administered at the same time to a mouse. Administration was performed by subcutaneous injection on the back of the mouse. As the dose, the CHP/long chain peptide complex was administered at 0.05 to 0.1 mg equivalent of long chain peptide per administration. […]
The mouse spleen cells were added at 5×10^6 cells/0.5 mL per well to a 24-well culture plate (Nunc). […] The cells were analyzed by a flow cytometer (FACS Canto II, BD Biosciences) using the included analysis software (FACSDiva).

[3] = test system: CD8+ T cell; settings: compared with NY p81; Non-Patent Document 8; cited from earlier work
[4] = test system: NY p157 specific CD8+ T cell clone 1G4 cells; test: Antigen presentation by LCL electroporated with mRNA vaccine, IFN-γ ELISPOT (1G4); type: cell-based, human; settings: FIG. 11; mRNA introduced into LCL by electroporation
Experimental: (§3) The interepitode sequences between the respective epitopes were the six consecutive amino acids shown in FIG. 11, namely sequence Nos. 31-34. Each mRNA was introduced in vitro as a vaccine into LCL by electroporation. Using these LCL as the antigen-presenting cells, they were co-cultured with CD8+ T cell clone 1G4 cells specific to NY p157 or CD8+ T cell clone RNT007#45 cells specific to MA4 p143 and the activation of the CD8+ T cells due to antigen presentation was measured by the IFN-γ ELISPOT method.
(§4) mRNA was introduced by an electroporation method (300V, 700 μs) using ECM830 into LCL that was rinsed and suspended in the same manner as in (9). The cells were cultured for 24 hours at 37° C. in the presence of 5% CO2 and then used as antigen-presenting cells.
(§5) 75 μL aliquots of anti-IFN-γ antibody for capture, diluted to an appropriate concentration, were dispensed into a 96-well plate (Millipore Corp., Multiscreen HA, MAHAS4510) specially designed for ELISPOT and left to stand overnight at 4° C. After discarding the liquid and rinsing with RPMI medium, 100 μL aliquots of RPMI medium containing 10% fetal bovine serum were dispensed and the plate was left to stand for not less than 1 hour at 37° C. The liquid was discarded, and the LCL prepared in (9) or (10) was adjusted to 5×10^4 cells/100 μL/well and added to each well. […]

[5] = test system: MA4 p143 specific CD8+ T cell clone RNT007 #45 cells; test: Antigen presentation by LCL electroporated with mRNA vaccine, IFN-γ ELISPOT (RNT007 #45); type: cell-based, human; settings: FIG. 11; mRNA introduced into LCL by electroporation
Experimental: as §3, §4, §5

Molecule | induction of NY p81 specific CD8+ T cells [1] | induction of NY p91 specific CD4+ T cells [2] | immunogenicity [3] | activation of 1G4 cells [4] | activation of RNT007 #45 cells [5]
GARGPESRLLEFYLAMPFATPMEAELARRSLAQDAPPLPV [ESO1 LP (native type), reference compound] | hardly observed | clearly observed |  |  | 
GPESRLL (Peptide sequence containing mouse CD8+ T cell epitope, NY p82) |  |  | poorer in immunogenicity than NY p81 |  | 
GPESRLLYYYYYYYLAMPFATPMEAELARRSLA (Long chain peptide antigen, containing a mouse CD8+ T cell epitope sequence (NY p81) and a mouse CD4+ T cell epitope sequence (NY p91)) [ESO1 LP (Y6)] | significant | clearly observed |  |  | 
B1 |  |  |  | clearly confirmed | clearly confirmed
